Data on one substance can be found in patent US20040208864A1, “Methods of improving health-related quality of life in individuals with systemic lupus erythematosus” (priority 2002, published 2004).

The test system of series [1] is anti-dsDNA antibodies. Kind of series: Anti-dsDNA antibody levels (Farr assay), Phase II/III study. The settings on record: for Frequency of patients with sustained reductions in anti-dsDNA antibodies compared with placebo: Phase II/III (90-05), sustained = at least 10% below baseline for at least 2/3 of values. The class given is in vivo, human. As for the experimental part: (§1) Two studies (Phase II/III or 90-05, and Phase III or 90-09) were conducted as described in Examples 1-2 and 12. […] Patients completed the SF-36® assessment at entry, followed by three additional time points in the trial depending on how long they participated. […] The Phase II/III trial enrolled 198 lupus patients with high-affinity antibodies who were treated for up to 18 months.
(§2) Patients selection, duration of treatment, assay type were in these studies are further detailed in Table 5. All laboratory values were determined at a central laboratory. Baseline anti-dsDNA antibody levels were calculated as the mean of the last 2 determinations prior to initial administration of the study drug. Baseline values for all other laboratory measures were determined immediately before administration of the study drug. The upper limit of normal for the anti-dsDNA antibody assay at the central laboratory was 5 IU/ml.
(§3) (Sustained reduction of 10% was based on the percent coefficient of variation of the Farr assay as reported in the assay labeling. At least ⅔ of observations were required to meet this criterion to assure the majority of values were represented for a patient.) All anti-dsDNA antibody values collected were used to determine if a patient met the criterion for sustained reduction. Anti-dsDNA antibody values subsequent to HDCC were considered treatment failures and these values were imputed to have a value equivalent to baseline.

The next series has as its system B cells. The settings on record: mice; cited from earlier work.
Series [2] relates to SLE patients. Kind of series: Documented renal flares, Phase II/III study. The class given is in vivo, human. As for the experimental part:
The primary endpoint was the time to a documented renal flare, defined as reproducible increases from baseline in 24-hr proteinuria or serum creatinine >20% or at least 0.3 mg/dL, whichever was greater, accompanied by proteinuria, hematuria and/or red cell casts; or new onset or reproducible increase in hematuria accompanied by either an increase in 24-hr proteinuria or new red cell casts. Secondary outcome measures included the number of renal flares, time to institution of therapy with high dose corticosteroids (HDCC) and/or cyclophosphamide, incidence of treatment with HDCC and/or cyclophosphamide, and number of major SLE flares. HDCC was defined as an increase in oral, intravenous or intramuscular prednisone (or prednisone equivalent) greater than or equal to 15 mg per day from baseline to a dose greater than 20 mg per day for more than two days or any dose exceeding 200 mg in a single day. Topical, intra-articular, intra-lesional, or intra-ocular corticosteroid administration was excluded.
(§4) The incidences of renal flares in patients of both sustained reduction group and the other group were documented and the results are shown in Table 7 for Phase III and Table 8 for Phase II/III.

The subject of series [3] is anti-dsDNA antibodies. Kind of series: Anti-dsDNA antibody levels (Farr assay), Phase III study. The note with it: for Frequency of patients with sustained reductions in anti-dsDNA antibodies compared with placebo: Phase III (90-09), sustained = at least 10% below baseline for at least 2/3 of values. Type of series: in vivo, human. As for the experimental part: as §1, §2, §3

In a further series the test system is anti-dsDNA. The note with it: patients with SLE; cited from earlier work.
For series [4], the system named is SLE patients. The experiment in a line: Documented renal flares, Phase III study. The class given is in vivo, human. On the procedure: The primary endpoint was time to renal flare. A renal flare was defined as a significant, reproducible increase in serum creatinine, urine protein or blood in the urine as described in Example 2. The secondary endpoint was time to treatment with HDCC. HDCC was defined as any dose of cyclophosphamide or an increase in prednisone of 15 mg/day or higher resulting in a final dose greater than 20 mg/day.
as §4

“Also recorded” adds a separate entry of the source.

On to “abetimus sodium (sense GTGTGTGTGTGTGTGTGTGT; antisense CACACACACACACACACACA; sense: DNA, backbone not given here; antisense: DNA, backbone and methylation of C not given here; four deoxynucleotide duplexes bound to triethylene glycol valency platform) [LJP 394, tetravalent conjugate: four (CA)10.(TG)10 double-stranded 20-mer oligonucleotides on a triethylene glycol based valency platform]”, for which the “# Patients with sustained reduction” value is recorded as 54 in the series with anti-dsDNA antibodies [1] (Phase II/III) and 80 in the series on anti-dsDNA antibodies [3] (Phase III). In addition, the “# Patients, Other (no sustained reduction)” value with anti-dsDNA antibodies [1] (Phase II/III) is on record as 38; with anti-dsDNA antibodies [3] (Phase III), 65. In addition, the “Frequency of patients with sustained reductions in anti-dsDNA antibodies compared with placebo” value in the series with anti-dsDNA antibodies [1] is recorded as “higher frequency; also recorded: more frequent”; in the series on anti-dsDNA antibodies [1] (listed as LJP394) it was “Four times as many”; with anti-dsDNA antibodies [3], “higher frequency; also recorded: Four times as many; also recorded: Twice as many; also recorded: more frequent”; with anti-dsDNA antibodies [3] (listed as LJP394), “Twice as many”. Also, the “Change in anti-dsDNA antibodies from baseline compared with placebo” value in the series with anti-dsDNA antibodies [1] (Phase II/III, p<0.0001) is recorded as “statistically significant decrease”; in the series on anti-dsDNA antibodies [3] (Phase III, p<0.0001) it was “statistically significant decrease”. Also, in the series with B cells, the “Induction of antigen-specific B-cell tolerance” value is recorded as “induce antigen-specific B-cell tolerance”. Also, the “# Renal flares in Other patients” value came to 6 with SLE patients [2] (Phase II/III) and 14 in the series on SLE patients [4]. Moreover, the figures for the “# Renal flares in patients with sustained reduction” value with SLE patients [2] (Phase II/III) and in the series on SLE patients [4] were 1 and 3, respectively. Further, in the series with SLE patients [2] (high affinity population), the “Time to and number of renal flares compared with placebo” value is given as “significant reduction”. For the same substance, the “Time to renal flare between treatment groups” value in the series on SLE patients [2] (intent-to-treat population, interim analysis) is given as “unlikely to reach statistical significance”. In addition, the “Effect on anti-dsDNA titers” value in the series with anti-dsDNA is “selectively reduces anti-dsDNA titers”.
